Here are results for 22 compounds from patent US20220227735A1, “THERAPEUTIC METHODS AND COMPOUNDS” (RUTGERS, THE STATE UNIVERSITY OF NEW JERSEY, priority 2019, published 2022).

Experiment [1] has as its target T1, Plasmodium falciparum PKG (PfPKG) (Plasmodium falciparum, UniProt Q8I719).
T1 construct: Full length PfPKG was cloned into the pTrcHisC vector for expression in BL21 (DE3) Star cells; His tag (pTrcHisC vector) (N); made in house; host or cells: E. coli BL21 (DE3) Star
The experiment in a line: PfPKG IMAP fluorescence polarization kinase assay. In kind it is biochemical. As for the experimental part:
Full length PfPKG was cloned into the pTrcHisC vector for expression in BL21 (DE3) Star cells. An LB culture containing 50 ug/ml carbenicillin (250 mL) was grown overnight at 37° C. The following day the culture was cooled on ice for about 10-15 minutes and divided equally into two new 125 mL cultures. 125 ml of fresh LB broth containing carbenicillin was added to each flask bringing the volume of each flask to 250 ml. Cultures were shaken at 18° C. before induction with IPTG (1.0 mM) for 18-24 h. The bacterial pellet was frozen at −80° C. until protein purification. Cells were lysed with Bacterial Protein Extraction Reagent (Thermo Scientific) on ice for 10-15 min. Supernatant was obtained after centrifugation of lysate at 21,000×g for 15 min at 4° C. Supernatant was incubated for 30 minutes at 4° C. with rotation with HisPur Cobalt Resin (Thermo Scientific), pre-washed with Wash Buffer (50 mM Hepes pH 7.8, 120 mM KCl, 20 mM NaCl, 10 mM Imidazole). Resin was added to a gravity column that was allowed to empty through gravity flow. The resin was washed with Wash buffer until no more protein is eluted off the column as determined by Bradford assay. A second wash was performed with Wash buffer containing 300 mM NaCl as in the previous wash step. Bound protein was eluted in 50 mM Hepes pH 7.8, 120 mM KCl, 20 mM NaCl, 250 mM Imidazole. Protein was dialyzed overnight in 50 mM Hepes pH 7.8, 120 mM KCl, 20 mM NaCl and 10% glycerol, with two buffer exchanges. Dialyzed protein was concentrated in a Corning Spin-X concentrator and assayed for activity using the IMAP FP Progressive Screening Expression kit (Molecular Devices, catalog #R8127) following the manufacturer's protocol.
(§1) Plasmodium falciparum PKG (PfPKG) and human PKG (hPKG) kinase activity was assayed using a commercial immobilized metal ion affinity-based fluorescence polarization (IMAP) assay according to the manufactures protocol (Molecular Devices). Briefly, kinase assays (20 μl in black half volume 96 well microtiter plates) contained; 10 mM Tris-HCl, pH 7.2, 10 mM MgCl2, 0.05% NaN3, 0.01% Tween® 20, 10 uM ATP, 1 uM cGMP and 21 ng of recombinant enzyme per well. Compounds were preincubated with enzyme at 25° C. for 15 minutes and reactions were initiated with addition of 120 nM fluorescent peptide substrates, FAM-PKAtide for PfPKG and FAM-IP3R for hPKG (Molecular Devices). Fluorescent polarization was measured using a Synergy 2 Microplate reader (BioTek, Winooski, Vt.). Fluorescent polarization was read in parallel and perpendicular with an excitation wavelength of 485 nm and an emission wavelength of 528 nm. IC50 data were analyzed using a four parameter logistic curve fit using Microsoft Excel Solver.
On the technique in general: Fluorescence polarisation rises when a labelled molecule tumbles more slowly, as on binding a larger partner.

Experiment [2] concerns human PKG (hPKG). The experiment in a line: Human PKG IMAP fluorescence polarization kinase assay. The settings on record: compound at 10 μm; recombinant hPKG, 10 uM ATP, 1 uM cGMP, FAM-IP3R substrate. Type of experiment: biochemical.
Excerpt: Human PKG, cloned into a pENTR221 vector, was obtained from DNASU.org. (HsCD00351766). It was cloned into a mammalian expression plasmid, Gateway pDEST27 (Invitrogen) for expression as a GST fusion protein, using LR Clonase II Plus enzyme (Invitrogen). The hPKG-pDEST27 plasmid was amplified in DH5a Max Efficiency Competent Cells and purified with a PureYield Plasmid Midiprep System (Promega) following the manufactures protocol. Expi293 cells were transfected with hPKG-pDEST27 using the Expifectamine 293 Transfection Kit (Gibco). After 18 hours, enhancing reagent (Gibco) was added. Cells were then collected 48 hours post-enhancing, centrifuged at 2000×g for 10 min, washed in ice cold PBS and frozen as a pellet at −80° C. until protein purification. The cell pellet was lysed with Mammalian Protein Extraction Reagent (Thermo Fisher) for 10-15 minutes. The lysate was centrifuged at 21,000×g for 15 minutes at 4° C. The supernatant was incubated for 1 h at 4° C. with glutathione resin that was pre-washed 10 times with ice cold Wash Buffer (50 mM Hepes pH 7.8, 120 mM KCl, 20 mM NaCl, 10% glycerol). The resin was loaded onto a column and washed with resin wash buffer by gravity flow until no more protein was detectable in the washes by Bradford assay. Protein was eluted with 10 mg/ml glutathione in Wash buffer. The protein was concentrated using a 30K MWCO Corning Spin X concentrator and assayed for activity as described above.
as §1

[3] abbreviates: recombinant PfPKG, 10 uM ATP, 1 uM cGMP, FAM-PKAtide substrate, read-out: PfPKG (μm).

Like-named read-outs stand apart in the source and are kept apart here.

T1 sequence (Q8I719 whole entry): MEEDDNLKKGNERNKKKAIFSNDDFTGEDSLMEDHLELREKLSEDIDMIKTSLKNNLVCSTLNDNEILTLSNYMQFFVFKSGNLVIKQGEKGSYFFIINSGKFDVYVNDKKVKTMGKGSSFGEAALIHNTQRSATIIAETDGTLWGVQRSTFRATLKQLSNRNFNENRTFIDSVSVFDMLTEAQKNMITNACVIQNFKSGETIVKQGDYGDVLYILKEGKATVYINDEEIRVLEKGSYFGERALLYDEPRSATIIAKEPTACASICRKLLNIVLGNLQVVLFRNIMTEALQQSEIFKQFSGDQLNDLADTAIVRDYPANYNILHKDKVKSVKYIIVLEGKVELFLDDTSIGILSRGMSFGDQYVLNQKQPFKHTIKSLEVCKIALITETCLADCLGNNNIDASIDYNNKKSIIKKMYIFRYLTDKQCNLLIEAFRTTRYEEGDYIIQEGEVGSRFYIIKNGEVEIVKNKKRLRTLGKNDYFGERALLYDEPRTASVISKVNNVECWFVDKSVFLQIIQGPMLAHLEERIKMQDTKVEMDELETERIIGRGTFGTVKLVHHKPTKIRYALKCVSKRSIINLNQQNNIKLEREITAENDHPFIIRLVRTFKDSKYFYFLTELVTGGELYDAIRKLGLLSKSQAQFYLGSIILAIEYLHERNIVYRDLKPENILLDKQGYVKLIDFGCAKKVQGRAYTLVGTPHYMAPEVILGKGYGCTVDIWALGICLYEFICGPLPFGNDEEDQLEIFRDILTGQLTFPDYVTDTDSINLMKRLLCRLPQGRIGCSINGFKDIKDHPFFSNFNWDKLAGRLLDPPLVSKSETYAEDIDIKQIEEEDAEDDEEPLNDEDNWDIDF

With `C[C@H]1C[C@H](c2cc(-c3ccncc3)c(-c3ccc(F)cc3)[nH]2)CCN1C` (single isomer, unassigned) [Example 30, 4-(5-(trans-1,2-dimethylpiperidin-4-yl)-2-(4-fluorophenyl)-1H-pyrrol-3-yl)pyridine], in experiment [1] (setting [3]), the IC50 was < 1 µM.
Turning to `CCc1c(C2CCN(C)CC2)[nH]c(-c2ccc(F)cc2)c1-c1ccncc1` [Example 24, 4-(4-ethyl-2-(4-fluorophenyl)-5-(1-methylpiperidin-4-yl)-1H-pyrrol-3-yl)pyridine], the “Human PKG (10 μm)” value in experiment [2] is given as 43. Further, the IC50 in experiment [1] (setting [3]) was < 1 µM.
Taken in the same sequence, the figures for `CN1CCC(c2cc(-c3ccncc3)c(-c3ccc(C(F)(F)F)cc3)[nH]2)CC1` [Example 33, 4-(5-(1-methylpiperidin-4-yl)-2-(4-(trifluoromethyl)phenyl)-1H-pyrrol-3-yl)pyridine] were 9 and < 1 µM.
Turning to `CN1CCC(c2[nH]c(-c3ccc(F)cc3)c(-c3ccncc3)c2Br)CC1` [Example 15, 4-(4-bromo-2-(4-fluorophenyl)-5-(1-methylpiperidin-4-yl)-1H-pyrrol-3-yl)pyridine], the “Human PKG (10 μm)” value in experiment [2] is 52. Also, the IC50 in experiment [1] (setting [3]) was < 1 µM.
Turning to `Cc1cnccc1-c1cc(C2CCN(C)CC2)[nH]c1-c1ccc(F)cc1` [Example 3, 4-(2-(4-fluorophenyl)-5-(1-methylpiperidin-4-yl)-1H-pyrrol-3-yl)-3-methylpyridine], the “Human PKG (10 μm)” value in experiment [2] worked out at 45. Further, the IC50 in experiment [1] (setting [3]) was < 1 µM.
The matching figures for `CN1CCC(c2cc(-c3ccncc3C(N)=O)c(-c3ccc(F)cc3)[nH]2)CC1` [Example 13, 4-(2-(4-fluorophenyl)-5-(1-methylpiperidin-4-yl)-1H-pyrrol-3-yl)nicotinamide]: −2 and < 1 µM.
Taken in the same sequence, the figures for `CN1CCC(c2cc(-c3ccnc(Br)c3)c(-c3ccc(F)cc3)[nH]2)CC1` [Example 2, 2-bromo-4-(2-(4-fluorophenyl)-5-(1-methylpiperidin-4-yl)-1H-pyrrol-3-yl)pyridine] were 60 and < 1 µM.
Regarding `C[C@@H]1CN(C)CC[C@@H]1c1cc(-c2ccncc2)c(-c2ccc(F)cc2)[nH]1` (single isomer, unassigned) [Example 31, 4-(5-(cis-1,3-dimethylpiperidin-4-yl)-2-(4-fluorophenyl)-1H-pyrrol-3-yl)pyridine], the “Human PKG (10 μm)” value in experiment [2] was determined as 82. Also, the IC50 in experiment [1] was < 1 µM.
On to `CC(O)c1c(C2CCN(C)CC2)[nH]c(-c2ccc(F)cc2)c1-c1ccncc1` (stereo not shown) [Example 20, 1-(5-(4-fluorophenyl)-2-(1-methylpiperidin-4-yl)-4-(pyridin-4-yl)-1H-pyrrol-3-yl)ethan-1-ol], for which the “Human PKG (10 μm)” value in experiment [2] was determined as 3. For the same compound, the IC50 in experiment [1] (setting [3]) was < 1 µM.
Consider `C=Cc1c(C2CCN(C)CC2)[nH]c(-c2ccc(F)cc2)c1-c1ccncc1` [Example 17, 4-(2-(4-fluorophenyl)-5-(1-methylpiperidin-4-yl)-4-vinyl-1H-pyrrol-3-yl)pyridine], for which the “Human PKG (10 μm)” value in experiment [2] was found to be 34. Also, the IC50 in experiment [1] (setting [3]) was < 1 µM.
Taken in the same sequence, the figures for `CN1CCC(c2cc(-c3ccn4nnnc4c3)c(-c3ccc(F)cc3)[nH]2)CC1` [Example 12, 7-(2-(4-fluorophenyl)-5-(1-methylpiperidin-4-yl)-1H-pyrrol-3-yl)tetrazolo[1,5-a]pyridine] were −35 and < 1 µM.
Taken in the same sequence, the figures for `CCOC(=O)c1c(C2CCN(C)CC2)[nH]c(-c2ccc(F)cc2)c1-c1ccncc1` [Example 16, Ethyl 5-(4-fluorophenyl)-2-(1-methylpiperidin-4-yl)-4-(pyridin-4-yl)-1H-pyrrole-3-carboxylate] were 18 and < 1 µM.
On to `CN1C2CCC1CC(c1cc(-c3ccncc3)c(-c3ccc(F)cc3)[nH]1)C2` (stereo not shown) [Example 27, 3-(5-(4-fluorophenyl)-4-(pyridin-4-yl)-1H-pyrrol-2-yl)-8-methyl-8-azabicyclo[3.2.1]octane], for which the “Human PKG (10 μm)” value in experiment [2] worked out at 32. In experiment [1], the IC50 is < 1 µM.
Take `C[C@@H]1CN(C)CC[C@H]1c1cc(-c2ccncc2)c(-c2ccc(F)cc2)[nH]1` (single isomer, unassigned) [Example 32, 4-(5-(trans-1,3-dimethylpiperidin-4-yl)-2-(4-fluorophenyl)-1H-pyrrol-3-yl)pyridine]: the “Human PKG (10 μm)” value in experiment [2] is listed as 66. Moreover, the IC50 in experiment [1] (read-out: PfPKG (μm), recombinant PfPKG, 10 uM ATP, 1 uM cGMP, FAM-PKAtide substrate) is < 1 µM.
Take `CN1CCC(c2[nH]c(-c3ccc(F)cc3)c(-c3ccncc3)c2CO)CC1` [Example 21, (5-(4-fluorophenyl)-2-(1-methylpiperidin-4-yl)-4-(pyridin-4-yl)-1H-pyrrol-3-yl)methanol]: the “Human PKG (10 μm)” value in experiment [2] is listed as 12. Further, the IC50 in experiment [1] (setting [3]) was < 1 µM.
Taken in the same sequence, the figures for `CN1C[C@@H]2C(c3cc(-c4ccncc4)c(-c4ccc(F)cc4)[nH]3)[C@@H]2C1` (stereo partly drawn) [Example 26, (1R,5S)-6-(5-(4-fluorophenyl)-4-(pyridin-4-yl)-1H-pyrrol-2-yl)-3-methyl-3-azabicyclo[3.1.0]hexane] were 7 and < 1 µM.
The matching figures for `CN1CCC(c2cc(-c3ccncc3C#N)c(-c3ccc(F)cc3)[nH]2)CC1` [Example 8, 4-(2-(4-fluorophenyl)-5-(1-methylpiperidin-4-yl)-1H-pyrrol-3-yl)nicotinonitrile]: 12 and < 1 µM.
Turning to `CN1CCC(c2[nH]c(-c3ccc(F)cc3)c(-c3ccncc3)c2C(N)=O)CC1` [Example 19, 5-(4-fluorophenyl)-2-(1-methylpiperidin-4-yl)-4-(pyridin-4-yl)-1H-pyrrole-3-carboxamide], in experiment [2], the “Human PKG (10 μm)” value is given as −8. For the same compound, the IC50 in experiment [1] (setting [3]) was < 1 µM.
On to `C[C@H]1C[C@@H](c2cc(-c3ccncc3)c(-c3ccc(F)cc3)[nH]2)CCN1C` (single isomer, unassigned) [Example 29, 4-(5-(cis-1,2-dimethylpiperidin-4-yl)-2-(4-fluorophenyl)-1H-pyrrol-3-yl)pyridine], for which the “Human PKG (10 μm)” value in experiment [2] was 26. In experiment [1] (setting [3]), the IC50 is < 1 µM.
In the case of `CN1CCC(c2[nH]c(-c3ccc(F)cc3)c(-c3ccncc3)c2C#N)CC1` [Example 18, 5-(4-fluorophenyl)-2-(1-methylpiperidin-4-yl)-4-(pyridin-4-yl)-1H-pyrrole-3-carbonitrile], in experiment [2], the “Human PKG (10 μm)” value is recorded as 57. In addition, the IC50 in experiment [1] (setting [3]) was < 1 µM.
For `Cc1cc(-c2cc(C3CCN(C)CC3)[nH]c2-c2ccc(F)cc2)ccn1` [Example 4, 4-(2-(4-fluorophenyl)-5-(1-methylpiperidin-4-yl)-1H-pyrrol-3-yl)-2-methylpyridine], the “Human PKG (10 μm)” value in experiment [2] stood at 30. The IC50 in experiment [1] (setting [3]) is < 1 µM.
The matching figures for `CN1CCC(c2cc(-c3ccnc(C(N)=O)c3)c(-c3ccc(F)cc3)[nH]2)CC1` [Example 5, 4-(2-(4-fluorophenyl)-5-(1-methylpiperidin-4-yl)-1H-pyrrol-3-yl)picolinamide]: 28 and < 1 µM.
